Reference: patent US20230340011A1 (Asteroid Therapeutics, priority 2022, published 2023)
pEC50, pIC50: −log10 of the molar value. Where two headings read alike, the source gives them in different places.

Legend:
[1] = biological target: SREBP-2 (Homo sapiens (Human), UniProt Q12772); assay: In vitro assay SREBP-2: PathHunter U2OS SREBP-2 Nuclear Translocation Cell Line, U18666A-stimulated; assay type: cell-based
[2] = biological target: LXRβ (Homo sapiens (Human), UniProt P55055); assay: In vitro assay LXRβ: PathHunter NHR CHO cells, LXRβ / Steroid Receptor Co-activator Peptide enzyme fragment complementation; assay type: cell-based; settings: PathHunter NHR CHO cells, full-length human LXRβ and SRCP, chemiluminescent signal; read-out: LXRβ PPI
Outline: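 Enzyme fragment complementation read-out: CHO cells stably expressing ProLink-tagged full-length human LXRβ plus nuclear enzyme acceptor–SRCP fusion, seeded and held overnight at 37° C. Medium with charcoal-dextran filtered serum; final vehicle 1%. Chemiluminescence measured after signal generation.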

[3] = PathHunter U2OS SREBP-2 nuclear translocation cells, U18666A 10 μM, overnight (16 hours)

Sequence of LXRβ (P55055 whole entry, the tested form may be a part): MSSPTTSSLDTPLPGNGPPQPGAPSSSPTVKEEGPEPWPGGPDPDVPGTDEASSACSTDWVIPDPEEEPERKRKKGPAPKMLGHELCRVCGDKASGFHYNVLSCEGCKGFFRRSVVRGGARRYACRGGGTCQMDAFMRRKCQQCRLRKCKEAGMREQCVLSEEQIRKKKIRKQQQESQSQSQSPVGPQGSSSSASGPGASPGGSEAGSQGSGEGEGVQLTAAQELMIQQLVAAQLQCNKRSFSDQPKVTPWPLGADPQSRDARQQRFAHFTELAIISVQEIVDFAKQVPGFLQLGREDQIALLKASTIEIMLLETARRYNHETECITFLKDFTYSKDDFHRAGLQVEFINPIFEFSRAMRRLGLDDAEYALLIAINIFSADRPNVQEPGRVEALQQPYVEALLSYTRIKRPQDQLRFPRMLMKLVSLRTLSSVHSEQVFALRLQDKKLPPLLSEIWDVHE

Row | SMILES | pIC50 [1, 3] | pEC50 [2] | pIC50 [1]
1 | COC(=O)N1CCN(C(=O)NC[C@@H](C)[C@H]2CC[C@H]3[C@@H]4CC=C5C[C@@H](O)CC[C@]5(C)[C@H]4CC[C@]23C)CC1 [Example 236, Methyl 4-(((S)-2-((3S,8S,9S,10R,13S,14S,17R)-3-hydroxy-10,13-dimethyl-2,3,4,7,8,9,10,11,12,13,14,15,16,17-tetradecahydro-1H-cyclopenta[a]phenanthren-17-yl)propyl)carbamoyl)piperazine-1-carboxylate] | > 6.60 | < 5.00 | 
2 | CC1CN(C(=O)N2CCN(C(=O)CC[C@@H](C)[C@H]3CC[C@H]4[C@@H]5CC=C6C[C@@H](O)CC[C@]6(C)[C@H]5CC[C@]34C)CC2)C1 [Example 664, (R)-4-((3S,8S,9S,10R,13R,14S,17R)-3-hydroxy-10,13-dimethyl-2,3,4,7,8,9,10,11,12,13,14,15,16,17-tetradecahydro-1H-cyclopenta[a]phenanthren-17-yl)-1-(4-(3-methylazetidine-1-carbonyl)piperazin-1-yl)pentan-1-one] | > 6.60 | < 5.00 | 
3 | C[C@H](CCC(=O)N1CCC(N(C)S(C)(=O)=O)CC1)[C@H]1CC[C@H]2[C@@H]3CC=C4C[C@@H](O)CC[C@]4(C)[C@H]3CC[C@]12C [Example 289, N-{1-[(4R)-4-[(1R,3aS,3bS,7S,9aR,9bS,11aR)-7-hydroxy-9a,11a-dimethyl-1H,2H,3H,3aH,3bH,4H,6H,7H,8H,9H,9aH,9bH,10H,11H,11aH-cyclopenta[a]phenanthren-1-yl]pentanoyl]piperidin-4-yl}-N-methylmethanesulfonamide] | 6.00 to 6.60 | < 5.00 | 
4 | C[C@H](CCC(=O)N1CCN(c2cccnc2O)CC1)[C@H]1CC[C@H]2[C@@H]3CC=C4C[C@@H](O)CC[C@]4(C)[C@H]3CC[C@]12C [Example 640, (R)-4-((3S,8S,9S,10R,13R,14S,17R)-3-hydroxy-10,13-dimethyl-2,3,4,7,8,9,10,11,12,13,14,15,16,17-tetradecahydro-1H-cyclopenta[a]phenanthren-17-yl)-1-(4-(2-hydroxypyridin-3-yl)piperazin-1-yl) pentan-1-one] | > 6.60 | < 5.00 | 
5 | CCOc1nccc(N2CCN(C(=O)CC[C@@H](C)[C@H]3CC[C@H]4[C@@H]5CC=C6C[C@@H](O)CC[C@]6(C)[C@H]5CC[C@]34C)CC2)n1 [Example 563, (R)-1-(4-(2-ethoxypyrimidin-4-yl)piperazin-1-yl)-4-((3S,8S,9S,10R,13R,14S,17R)-3-hydroxy-10,13-dimethyl-2,3,4,7,8,9,10,11,12,13,14,15,16,17-tetradecahydro-1H-cyclopenta[a]phenanthren-17-yl)pentan-1-one] | > 6.60 | < 5.00 | 
6 | C=CCN1C[C@H]2CON(C(=O)CC[C@@H](C)[C@H]3CC[C@H]4[C@@H]5CC=C6C[C@@H](O)CC[C@]6(C)[C@H]5CC[C@]34C)[C@H]2C1 [Example 44, (R)-1-((3aR,6aR)-5-allylhexahydro-1H-pyrrolo[3,4-c]isoxazol-1-yl)-4-((3S,8S,9S,10R,13R,14S,17R)-3-hydroxy-10,13-dimethyl-2,3,4,7,8,9,10,11,12,13,14,15,16,17-tetradecahydro-1H-cyclopenta[a]phenanthren-17-yl)pentan-1-one] | 6.00 to 6.60 | < 5.00 | 
7 | C[C@H](CCc1ncccc1OCCO)[C@H]1CC[C@H]2[C@@H]3CC=C4C[C@@H](O)CC[C@]4(C)[C@H]3CC[C@]12C [Example 246] | > 6.60 | 6.00 to 6.60 | 
8 | C[C@H](CCC(=O)N1CCC(N(C)C(=O)c2ccncc2)CC1)[C@H]1CC[C@H]2[C@@H]3CC=C4C[C@@H](O)CC[C@]4(C)[C@H]3CC[C@]12C [Example 416, N-(1-((R)-4-((3S,8S,9S,10R,13R,14S,17R)-3-hydroxy-10,13-dimethyl-2,3,4,7,8,9,10,11,12,13,14,15,16,17-tetradecahydro-1H-cyclopenta[a]phenanthren-17-yl)pentanoyl)piperidin-4-yl)-N-methylisonicotinamide] | > 6.60 | < 5.00 | 
9 | C[C@H](OC(=O)C(=O)N1CCCC1)[C@H]1CC[C@H]2[C@@H]3CC=C4C[C@@H](O)CC[C@]4(C)[C@H]3CC[C@]12C [Example 198, (S)-1-((3S,8S,9S,10R,13S,14S,17S)-3-hydroxy-10,13-dimethyl-2,3,4,7,8,9,10,11,12,13,14,15,16,17-tetradecahydro-1H-cyclopenta[a]phenanthren-17-yl)ethyl 2-oxo-2-(pyrrolidin-1-yl)acetate] | > 6.60 | 5.00 to 6.00 | 
10 | COC(C)C1CCN(C(=O)CC[C@@H](C)[C@H]2CC[C@H]3[C@@H]4CC=C5C[C@@H](O)CC[C@]5(C)[C@H]4CC[C@]23C)CC1 (stereo partly drawn) [Example 469, (4R)-4-((3S,8S,9S,10R,13R,14S,17R)-3-hydroxy-10,13-dimethyl-2,3,4,7,8,9,10,11,12,13,14,15,16,17-tetradecahydro-1H-cyclopenta[a]phenanthren-17-yl)-1-(4-(1-methoxyethyl)piperidin-1-yl)pentan-1-one] | > 6.60 | 6.00 to 6.60 | 
11 | C[C@H](CCC(=O)N1CCN(c2ccncc2)[C@@H](C)C1)[C@H]1CC[C@H]2[C@@H]3CC=C4C[C@@H](O)CC[C@]4(C)[C@H]3CC[C@]12C [Example 567, (R)-4-((3S,8S,9S,10R,13R,14S,17R)-3-hydroxy-10,13-dimethyl-2,3,4,7,8,9,10,11,12,13,14,15,16,17-tetradecahydro-1H-cyclopenta[a]phenanthren-17-yl)-1-((S)-3-methyl-4-(pyridin-4-yl)piperazin-1-yl)pentan-1-one] | > 6.60 | < 5.00 | 
12 | C[C@H](CC(=O)N1CCN(c2ccncn2)CC1)[C@H]1CC[C@H]2[C@@H]3CC=C4C[C@@H](O)CC[C@]4(C)[C@H]3CC[C@]12C [Example 595, (R)-3-((3S,8S,9S,10R,13R,14S,17R)-3-hydroxy-10,13-dimethyl-2,3,4,7,8,9,10,11,12,13,14,15,16,17-tetradecahydro-1H-cyclopenta[a]phenanthren-17-yl)-1-(4-(pyrimidin-4-yl)piperazin-1-yl)butan-1-one] | 5.00 to 6.00 | < 5.00 | 
13 | COc1ccccc1N1CCN(C(=O)CC[C@@H](C)[C@H]2CC[C@H]3[C@@H]4CC=C5C[C@@H](O)CC[C@]5(C)[C@H]4CC[C@]23C)CC1 [Example 624, (R)-4-((3S,8S,9S,10R,13R,14S,17R)-3-hydroxy-10,13-dimethyl-2,3,4,7,8,9,10,11,12,13,14,15,16,17-tetradecahydro-1H-cyclopenta[a]phenanthren-17-yl)-1-(4-(2-methoxyphenyl)piperazin-1-yl)pentan-1-one] | > 6.60 | < 5.00 | 
14 | COC1CCN(C(=O)CC[C@@H](C)[C@H]2CC[C@H]3[C@@H]4CC=C5C[C@@H](O)CC[C@]5(C)[C@H]4CC[C@]23C)CC1 [Example 94, (R)-4-((3S,8S,9S,10R,13R,14S,17R)-3-hydroxy-10,13-dimethyl-2,3,4,7,8,9,10,11,12,13,14,15,16,17-tetradecahydro-1H-cyclopenta[a]phenanthren-17-yl)-1-(4-methoxypiperidin-1-yl)pentan-1-one] | > 6.60 | 6.00 to 6.60 | 
15 | C[C@H](CCC(=O)N1CCN(C(=O)N(C)C2CC2)CC1)[C@H]1CC[C@H]2[C@@H]3CC=C4C[C@@H](O)CC[C@]4(C)[C@H]3CC[C@]12C [Example 211, N-cyclopropyl-4-((R)-4-((3S,8S,9S,10R,13R,14S,17R)-3-hydroxy-10,13-dimethyl-2,3,4,7,8,9,10,11,12,13,14,15,16,17-tetradecahydro-1H-cyclopenta[a]phenanthren-17-yl)pentanoyl)-N-methylpiperazine-1-carboxamide] |  | < 5.00 | > 6.60
16 | C[C@H](CCc1nccs1)[C@H]1CC[C@H]2[C@@H]3CC=C4C[C@@H](O)CC[C@]4(C)[C@H]3CC[C@]12C [Example 172, (1R,3aS,3bS,7S,9aR,9bS,11aR)-9a,11a-dimethyl-1-[(2R)-4-(1,3-thiazol-2-yl)butan-2-yl]-1H,2H,3H,3aH,3bH,4H,6H,7H,8H,9H,9aH,9bH,10H,11H,11aH-cyclopenta[a]phenanthren-7-ol] | 6.00 to 6.60 | 5.00 to 6.00 | 
17 | C[C@H](CCC(=O)N1CCC(OC(=O)N(C)C)CC1)[C@H]1CC[C@H]2[C@@H]3CC=C4C[C@@H](O)CC[C@]4(C)[C@H]3CC[C@]12C [Example 286, 1-((R)-4-((3S,8S,9S,10R,13R,14S,17R)-3-hydroxy-10,13-dimethyl-2,3,4,7,8,9,10,11,12,13,14,15,16,17-tetradecahydro-1H-cyclopenta[a]phenanthren-17-yl)pentanoyl)piperidin-4-yl dimethylcarbamate] | > 6.60 | < 5.00 | 
18 | COc1ccnc(CC[C@@H](C)[C@H]2CC[C@H]3[C@@H]4CC=C5C[C@@H](O)CC[C@]5(C)[C@H]4CC[C@]23C)c1 [Example 602, (3S,8S,9S,10R,13R,14S,17R)-17-((R)-4-(4-methoxypyridin-2-yl)butan-2-yl)-10,13-dim ethyl-2,3,4,7,8,9,10,11,12,13,14,15,16,17-tetradecahydro-1H-cyclopenta[a]phenanthren-3-ol] | > 6.60 | 6.00 to 6.60 | 
19 | CCOc1cccnc1CC[C@@H](C)[C@H]1CC[C@H]2[C@@H]3CC=C4C[C@@H](O)CC[C@]4(C)[C@H]3CC[C@]12C [Example 247, (1R,3aS,3bS,7S,9aR,9bS,11aR)-1-[(2R)-4-(3-ethoxypyridin-2-yl)butan-2-yl]-9a,11a-dimethyl-1H,2H,3H,3aH,3bH,4H,6H,7H,8H,9H,9aH,9bH,10H,11H,11aH-cyclopenta[a]phenanthren-7-ol] | > 6.60 | 6.00 to 6.60 | 
